Test results from ChEMBL document CHEMBL1681728, “An automated, polymer-assisted strategy for the preparation of urea and thiourea derivatives of 15-membered azalides as potential antimalarial chemotherapeutics” (Bioorg Med Chem, 2011).

Columns and labels:
Type in all cases: functional, organism-based
Plasmodium falciparum [1] = assay: Antimalarial activity against multidrug-resistant Plasmodium falciparum TM91C235 assessed as inhibition of [3H]hypoxanthine incorporation after 96 hrs by microtiter plate scintillation counting
Plasmodium falciparum [2] = assay: Antimalarial activity against chloroquine-sensitive Plasmodium falciparum D6 assessed as inhibition of [3H]hypoxanthine incorporation after 96 hrs by microtiter plate scintillation counting
Plasmodium falciparum [3] = assay: Antimalarial activity against chloroquine-,pyrimethamine-resistant Plasmodium falciparum W2 assessed as inhibition of [3H]hypoxanthine incorporation after 96 hrs by microtiter plate scintillation counting

SMILES | IC50 (Plasmodium falciparum [1]) [nM] | IC50 (Plasmodium falciparum [2]) [nM] | IC50 (Plasmodium falciparum [3]) [nM]
CC[C@H]1OC(=O)[C@H](C)[C@@H](O[C@H]2C[C@@](C)(OC)[C@@H](O)[C@H](C)O2)[C@H](C)[C@@H](O[C@@H]2O[C@H](C)C[C@H](N(C)C)[C@H]2O)[C@](C)(O)C[C@@H](C)CN(CCCNC(=S)NCCCSC)[C@H](C)[C@@H](O)[C@]1(C)O | 354 | 898 | 202
CC[C@H]1OC(=O)[C@H](C)[C@@H](O[C@H]2C[C@@](C)(OC)[C@@H](O)[C@H](C)O2)[C@H](C)[C@@H](O[C@@H]2O[C@H](C)C[C@H](N(C)C)[C@H]2O)[C@](C)(O)C[C@@H](C)CN(CCCNC(=S)NCCN2CCCCC2)[C@H](C)[C@@H](O)[C@]1(C)O | 3030 | 9290 | 3300
CC[C@H]1OC(=O)[C@H](C)[C@@H](O[C@H]2C[C@@](C)(OC)[C@@H](O)[C@H](C)O2)[C@H](C)[C@@H](O[C@@H]2O[C@H](C)C[C@H](N(C)C)[C@H]2O)[C@](C)(O)C[C@@H](C)CN(CCCNC(=S)Nc2c(F)cccc2F)[C@H](C)[C@@H](O)[C@]1(C)O | 188 | 509 | 86.3
CC[C@H]1OC(=O)[C@H](C)[C@@H](O[C@H]2C[C@@](C)(OC)[C@@H](O)[C@H](C)O2)[C@H](C)[C@@H](O[C@@H]2O[C@H](C)C[C@H](N(C)C)[C@H]2O)[C@](C)(O)C[C@@H](C)CN(CCCNC(=O)Nc2ccc3c(c2)OCO3)[C@H](C)[C@@H](O)[C@]1(C)O | 265 | 835 | 111
CC[C@H]1OC(=O)[C@H](C)[C@@H](O[C@H]2C[C@@](C)(OC)[C@@H](O)[C@H](C)O2)[C@H](C)[C@@H](O[C@@H]2O[C@H](C)C[C@H](N(C)C)[C@H]2O)[C@](C)(O)C[C@@H](C)CN(CCCNC(=O)NC2CCN(C(=O)OCc3ccccc3)CC2)[C@H](C)[C@@H](O)[C@]1(C)O | 236 | 635 | 276
CC[C@H]1OC(=O)[C@H](C)[C@@H](O[C@H]2C[C@@](C)(OC)[C@@H](O)[C@H](C)O2)[C@H](C)[C@@H](O[C@@H]2O[C@H](C)C[C@H](N(C)C)[C@H]2O)[C@](C)(O)C[C@@H](C)CN(CCCNC(=S)Nc2ccc(Oc3ccccc3)nc2)[C@H](C)[C@@H](O)[C@]1(C)O | 133 | 215 | 109
CC[C@H]1OC(=O)[C@H](C)[C@@H](O[C@H]2C[C@@](C)(OC)[C@@H](O)[C@H](C)O2)[C@H](C)[C@@H](O[C@@H]2O[C@H](C)C[C@H](N(C)C)[C@H]2O)[C@](C)(O)C[C@@H](C)CN(CCCNC(=O)Nc2ccc(C#N)cc2)[C@H](C)[C@@H](O)[C@]1(C)O | 206 | 386 | 98.3
CC[C@H]1OC(=O)[C@H](C)[C@@H](O[C@H]2C[C@@](C)(OC)[C@@H](O)[C@H](C)O2)[C@H](C)[C@@H](O[C@@H]2O[C@H](C)C[C@H](N(C)C)[C@H]2O)[C@](C)(O)C[C@@H](C)CN(CCCNC(=O)Nc2cccc(Cl)c2)[C@H](C)[C@@H](O)[C@]1(C)O | 118 | 455 | 187
CCNC(=O)NCCCN1C[C@H](C)C[C@@](C)(O)[C@H](O[C@@H]2O[C@H](C)C[C@H](N(C)C)[C@H]2O)[C@@H](C)[C@H](O[C@H]2C[C@@](C)(OC)[C@@H](O)[C@H](C)O2)[C@@H](C)C(=O)O[C@H](CC)[C@@](C)(O)[C@H](O)[C@H]1C | 1980 | 13700 | 13700
CC[C@H]1OC(=O)[C@H](C)[C@@H](O[C@H]2C[C@@](C)(OC)[C@@H](O)[C@H](C)O2)[C@H](C)[C@@H](O[C@@H]2O[C@H](C)C[C@H](N(C)C)[C@H]2O)[C@](C)(O)C[C@@H](C)CN(CCCNC(=S)NC(c2ccccc2)c2ccccc2)[C@H](C)[C@@H](O)[C@]1(C)O | 55 | 218 | 37.7
CC[C@H]1OC(=O)[C@H](C)[C@@H](O[C@H]2C[C@@](C)(OC)[C@@H](O)[C@H](C)O2)[C@H](C)[C@@H](O[C@@H]2O[C@H](C)C[C@H](N(C)C)[C@H]2O)[C@](C)(O)C[C@@H](C)CN(CCCNC(=O)Nc2cc(C(=O)OC)cc(C(=O)OC)c2)[C@H](C)[C@@H](O)[C@]1(C)O | 411 | 648 | 120
CC[C@H]1OC(=O)[C@H](C)[C@@H](O[C@H]2C[C@@](C)(OC)[C@@H](O)[C@H](C)O2)[C@H](C)[C@@H](O[C@@H]2O[C@H](C)C[C@H](N(C)C)[C@H]2O)[C@](C)(O)C[C@@H](C)CN(CCCNC(=O)Nc2c(C)noc2-c2ccccc2)[C@H](C)[C@@H](O)[C@]1(C)O | 492 | 936 | 734
CC[C@H]1OC(=O)[C@H](C)[C@@H](O[C@H]2C[C@@](C)(OC)[C@@H](O)[C@H](C)O2)[C@H](C)[C@@H](O[C@@H]2O[C@H](C)C[C@H](N(C)C)[C@H]2O)[C@](C)(O)C[C@@H](C)CN(CCCNC(=S)Nc2ccc(F)c(F)c2F)[C@H](C)[C@@H](O)[C@]1(C)O | 73.7 | 449 | 165
CC[C@H]1OC(=O)[C@H](C)[C@@H](O[C@H]2C[C@@](C)(OC)[C@@H](O)[C@H](C)O2)[C@H](C)[C@@H](O[C@@H]2O[C@H](C)C[C@H](N(C)C)[C@H]2O)[C@](C)(O)C[C@@H](C)CN(CCCNC(=S)Nc2ccsc2C(=O)OC)[C@H](C)[C@@H](O)[C@]1(C)O | 330 | 452 | 375
CC[C@H]1OC(=O)[C@H](C)[C@@H](O[C@H]2C[C@@](C)(OC)[C@@H](O)[C@H](C)O2)[C@H](C)[C@@H](O[C@@H]2O[C@H](C)C[C@H](N(C)C)[C@H]2O)[C@](C)(O)C[C@@H](C)CN(CCCNC(=S)Nc2cccc(-c3ccccc3)c2OC)[C@H](C)[C@@H](O)[C@]1(C)O | 55.3 | 58.1 | 114
CC[C@H]1OC(=O)[C@H](C)[C@@H](O[C@H]2C[C@@](C)(OC)[C@@H](O)[C@H](C)O2)[C@H](C)[C@@H](O[C@@H]2O[C@H](C)C[C@H](N(C)C)[C@H]2O)[C@](C)(O)C[C@@H](C)CN(CCCNC(=O)NC(C)(C)C)[C@H](C)[C@@H](O)[C@]1(C)O | 800 | 5510 | 410
CC[C@H]1OC(=O)[C@H](C)[C@@H](O[C@H]2C[C@@](C)(OC)[C@@H](O)[C@H](C)O2)[C@H](C)[C@@H](O[C@@H]2O[C@H](C)C[C@H](N(C)C)[C@H]2O)[C@](C)(O)C[C@@H](C)CN(C)[C@H](C)[C@@H](O)[C@]1(C)O [AZITHROMYCIN] | 2060 | 1020 | 2240
CCCCNC(=S)NCCCN1C[C@H](C)C[C@@](C)(O)[C@H](O[C@@H]2O[C@H](C)C[C@H](N(C)C)[C@H]2O)[C@@H](C)[C@H](O[C@H]2C[C@@](C)(OC)[C@@H](O)[C@H](C)O2)[C@@H](C)C(=O)O[C@H](CC)[C@@](C)(O)[C@H](O)[C@H]1C | 382 | 655 | 188
CC[C@H]1OC(=O)[C@H](C)[C@@H](O[C@H]2C[C@@](C)(OC)[C@@H](O)[C@H](C)O2)[C@H](C)[C@@H](O[C@@H]2O[C@H](C)C[C@H](N(C)C)[C@H]2O)[C@](C)(O)C[C@@H](C)CN(CCCNC(=O)NCCc2cccs2)[C@H](C)[C@@H](O)[C@]1(C)O | 405 | 932 | 1040
CC[C@H]1OC(=O)[C@H](C)[C@@H](O[C@H]2C[C@@](C)(OC)[C@@H](O)[C@H](C)O2)[C@H](C)[C@@H](O[C@@H]2O[C@H](C)C[C@H](N(C)C)[C@H]2O)[C@](C)(O)C[C@@H](C)CN(CCCNC(=O)NCc2ccc(OC)cc2)[C@H](C)[C@@H](O)[C@]1(C)O | 484 | 1620 | 204
CCc1ccccc1NC(=S)NCCCN1C[C@H](C)C[C@@](C)(O)[C@H](O[C@@H]2O[C@H](C)C[C@H](N(C)C)[C@H]2O)[C@@H](C)[C@H](O[C@H]2C[C@@](C)(OC)[C@@H](O)[C@H](C)O2)[C@@H](C)C(=O)O[C@H](CC)[C@@](C)(O)[C@H](O)[C@H]1C | 252 | 445 | 96.2
CC[C@H]1OC(=O)[C@H](C)[C@@H](O[C@H]2C[C@@](C)(OC)[C@@H](O)[C@H](C)O2)[C@H](C)[C@@H](O[C@@H]2O[C@H](C)C[C@H](N(C)C)[C@H]2O)[C@](C)(O)C[C@@H](C)CN(CCCNC(=O)NCc2ccco2)[C@H](C)[C@@H](O)[C@]1(C)O | 496 | 5610 | 287
CC[C@H]1OC(=O)[C@H](C)[C@@H](O[C@H]2C[C@@](C)(OC)[C@@H](O)[C@H](C)O2)[C@H](C)[C@@H](O[C@@H]2O[C@H](C)C[C@H](N(C)C)[C@H]2O)[C@](C)(O)C[C@@H](C)CN(CCCNC(=O)NCC2CCCCC2)[C@H](C)[C@@H](O)[C@]1(C)O | 142 | 610 | 113
CC[C@H]1OC(=O)[C@H](C)[C@@H](O[C@H]2C[C@@](C)(OC)[C@@H](O)[C@H](C)O2)[C@H](C)[C@@H](O[C@@H]2O[C@H](C)C[C@H](N(C)C)[C@H]2O)[C@](C)(O)C[C@@H](C)CN(CCCNC(=S)NC(c2ccccc2)(c2ccccc2)c2ccccc2)[C@H](C)[C@@H](O)[C@]1(C)O | 31.9 | 125 | 37
CC[C@H]1OC(=O)[C@H](C)[C@@H](O[C@H]2C[C@@](C)(OC)[C@@H](O)[C@H](C)O2)[C@H](C)[C@@H](O[C@@H]2O[C@H](C)C[C@H](N(C)C)[C@H]2O)[C@](C)(O)C[C@@H](C)CN(CCCNC(=S)Nc2cccc(C(F)(F)F)c2)[C@H](C)[C@@H](O)[C@]1(C)O | 54 | 120 | 30.3
CC[C@H]1OC(=O)[C@H](C)[C@@H](O[C@H]2C[C@@](C)(OC)[C@@H](O)[C@H](C)O2)[C@H](C)[C@@H](O[C@@H]2O[C@H](C)C[C@H](N(C)C)[C@H]2O)[C@](C)(O)C[C@@H](C)CN(CCCNC(=S)Nc2ccc(Cl)c(C(F)(F)F)c2)[C@H](C)[C@@H](O)[C@]1(C)O | 56.3 | 54.3 | 35
